Source: patent US10221163B2 (priority 2015, dated 2019)
Where two headings read alike, the source gives them in different places.

Legend:
IMP-1 = IMP-1 (Serratia marcescens, UniProt P52699); test: biochemical; format: biochemical; conditions: CCF2-FA substrate, 2 pM enzyme, 2 hours at 25° C.
Procedure, shortened: (§1)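 Fluorescence assay of metallo-β-lactamase activity using CCF2-FA, a cephalosporin-linked 7-hydroxycoumarin–fluorescein substrate. Inhibitor, enzyme and substrate were incubated together for 2 hours at 25° C. IC50 came from a 4-parameter fit of inhibition versus inhibitor concentration.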

NDM-1 = NDM-1 (Klebsiella pneumoniae, UniProt C7C422); test: biochemical; format: biochemical; conditions: fluorescence assay, CCF2-FA substrate, 1 pM enzyme, 2 hours at 25° C.; read-out: NDM-1 IC50
Procedure, shortened: as §1

VIM-1 = VIM-1 (Pseudomonas aeruginosa (strain ATCC 15692 / DSM 22644 / CIP 104116 / JCM 14847 / LMG 12228 / 1C / PRS 101 / PAO1), UniProt A0A0F7KYQ8); test: biochemical; conditions: CCF2-FA substrate, 30 pM enzyme, 2 hours at 25° C.
Procedure, shortened: as §1

[1] = tested on: Escherichia coli expressing NDM-1 (CLB30005, CLB30016); format: cell-based; conditions: NDM-1 strain, with imipenem 1 μg/ml, 95% inhibition of growth
Procedure, shortened: (§2)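 Colonies grown overnight on blood agar at 35° C were suspended in saline, diluted 1:100 into 1.1×CAMHB and dispensed. Imipenem was added to 1 μg/ml, then test compound. After 22 hours to 24 hours at 35° C, absorbance was recorded.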

[2] = tested on: Klebsiella pneumoniae expressing VIM-1 (IHMA599644); format: cell-based; conditions: VIM-1 strain IHMA599644, with imipenem 1 μg/ml, 95% inhibition of growth
Procedure, shortened: as §2

[3] = tested on: Serratia marcescens expressing IMP-1 (CL5741); format: cell-based; conditions: IMP-1 strain CL5741, with imipenem 1 μg/ml, 95% inhibition of growth
Procedure, shortened: as §2

[4] = tested on: Pseudomonas aeruginosa efflux+ (MB9798), IMP-1; format: cell-based; design: Concentration of metallo-β-lactamase inhibitor which restores susceptibility of efflux + (MB9798) strain to imipenem: unit not given here; conditions: efflux+ MB9798; imipenem at 2 μg/mL; in the presence of a class A, C, D serine β-lactamase inhibitor closely related to relebactam
Procedure, shortened: (§3)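 Microbroth MIC tests in PAO1-background strains with fixed imipenem and/or ceftazidime, usually at the CLSI breakpoint, plus fixed class A/C β-lactamase inhibitor against AmpC. MBL inhibitor titrated; concentration restoring susceptibility recorded and compared as fold difference between efflux+ MB9798 and efflux− MB9799.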

[5] = tested on: Pseudomonas aeruginosa efflux− (MB9799), IMP-1; format: cell-based; conditions: efflux− MB9799; imipenem at 2 μg/mL; in the presence of a class A, C, D serine β-lactamase inhibitor closely related to relebactam
Procedure, shortened: as §3

[6] = tested on: Pseudomonas aeruginosa MB9798 vs MB9799; conditions: fold difference between efflux+ (MB9798) and efflux− (MB9799) strains; imipenem at 2 μg/mL
Procedure, shortened: as §3

[7] = fluorescence assay, read-out: VIM-1 IC50
[8] = fluorescence assay, read-out: IMP-1 IC50

Sequence of NDM-1 (C7C422 whole entry, looked up, species assumed): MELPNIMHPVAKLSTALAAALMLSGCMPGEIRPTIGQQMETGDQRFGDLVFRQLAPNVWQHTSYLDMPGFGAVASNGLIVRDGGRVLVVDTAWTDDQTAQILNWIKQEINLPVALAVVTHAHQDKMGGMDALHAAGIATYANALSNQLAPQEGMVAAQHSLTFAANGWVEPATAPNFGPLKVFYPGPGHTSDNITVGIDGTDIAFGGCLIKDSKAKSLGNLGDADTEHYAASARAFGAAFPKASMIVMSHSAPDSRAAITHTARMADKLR
Sequence of IMP-1 (P52699 whole entry, looked up, species assumed): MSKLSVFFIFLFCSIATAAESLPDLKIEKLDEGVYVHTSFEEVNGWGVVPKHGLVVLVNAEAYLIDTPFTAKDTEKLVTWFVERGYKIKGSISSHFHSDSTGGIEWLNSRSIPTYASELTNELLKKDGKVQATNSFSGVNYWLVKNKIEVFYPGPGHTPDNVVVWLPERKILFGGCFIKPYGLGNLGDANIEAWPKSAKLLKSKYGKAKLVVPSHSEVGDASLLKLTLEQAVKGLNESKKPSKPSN

Row | SMILES | IC50 (IMP-1; IMP-1 IC50, fluorescence assay) | IC50 (NDM-1) | IC50 (VIM-1; [7]) | Escherichia coli MITC95 [1] | Klebsiella pneumoniae MITC95 [2] | Serratia marcescens MITC95 [3] | Concentration of metallo-β-lactamase inhibitor which restores susceptibility of efflux + (MB9798) strain to imipenem [4] | Concentration of metallo-β-lactamase inhibitor which restores susceptibility of efflux − (MB9799) strain to imipenem [5] | Efflux ratio [6] | IC50 (IMP-1; [8]) | IC50 (VIM-1; VIM-1 IC50, fluorescence assay)
1 | C[N+](C)(C)CCNS(=O)(=O)c1ccc(-c2cccc3sc(N)nc23)c(-c2nnn[nH]2)c1S(N)(=O)=O.O=C([O-])C(F)(F)F [Example 391, 2-({[4-(2-amino-1,3-benzothiazol-4-yl)-2-sulfamoyl-3-(1H-tetrazol-5-yl)phenyl]sulfonyl}amino)-N,N,N-trimethylethanaminium trifluoroacetate] | 0.209 nM | 0.028 nM | 0.0965 nM | 3.125 µM | 6.25 µM | 3.125 µM | 1.563 | 1.563 | 1.00 |  | 
2 | C[C@H](CN)NS(=O)(=O)c1ccc(-c2ccc(N)nc2)c(-c2nn[nH]n2)c1S(N)(=O)=O [Example 393, (R)—N^1-(1-aminopropan-2-yl)-4-(6-aminopyridin-3-yl)-3-(2H-tetrazol-5-yl)benzene-1,2-disulfonamide] |  | 0.0219 nM | 0.0454 nM | 0.651 µM | 2.083 µM | 1.042 µM | 0.7813 | 1.042 | 0.75 | 0.0629 nM | 
3 | C[C@@H](CN)NS(=O)(=O)c1ccc(-c2ccc(N)nc2)c(-c2nn[nH]n2)c1S(N)(=O)=O [Example 394] |  | 1.89 nM | 1.24 nM | 0.3906 µM | 3.125 µM | 1.563 µM | 3.125 | 1.563 | 2.00 | 2 nM | 
4 | C[C@H](CN)NS(=O)(=O)c1ccc(-c2cccc3c2nc(N)n3C)c(-c2nn[nH]n2)c1S(N)(=O)=O [Example 395] |  | 0.0315 nM |  | 0.3906 µM | 1.563 µM | 1.563 µM | 1.563 | 0.7813 | 2.00 | 0.156 nM | 0.108 nM
5 | C[C@@H](CN)NS(=O)(=O)c1ccc(-c2ccnc(N)c2)c(-c2nn[nH]n2)c1S(N)(=O)=O [Example 398] |  | 2.54 nM | 0.939 nM | 3.125 µM | 3.125 µM | 1.563 µM | 6.25 | 1.563 | 4.00 | 7.45 nM | 
6 | NCCNS(=O)(=O)c1ccc(-c2ccnc(N)c2)c(-c2nn[nH]n2)c1S(N)(=O)=O [Example 400] |  | 0.598 nM | 0.244 nM | 0.1953 µM | 1.563 µM | 0.3906 µM | 1.563 | 0.7813 | 2.00 | 1.42 nM | 
7 | NCCNS(=O)(=O)c1ccc(-c2ccc3nccn3c2)c(-c2nn[nH]n2)c1S(N)(=O)=O [Example 401] |  | 0.197 nM | 0.0897 nM | 0.7813 µM | 1.563 µM | 0.3906 µM | 1.563 | 0.7813 | 2.00 | 0.483 nM | 
8 | NCCCNS(=O)(=O)c1ccc(-c2cc(F)cc3[nH]c(N)nc23)c(-c2nn[nH]n2)c1S(N)(=O)=O [Example 402] |  | 0.0524 nM | 0.159 nM | 0.3906 µM | 1.563 µM | 0.7813 µM | 0.7813 | 0.7813 | 1.00 | 0.318 nM | 
9 | NCC(CN)NS(=O)(=O)c1ccc(-c2cccc3[nH]nnc23)c(-c2nn[nH]n2)c1S(N)(=O)=O [Example 403] |  | 0.0633 nM |  | 1.563 µM | 3.125 µM | 1.563 µM | 1.563 | 1.563 | 1.00 | 0.531 nM | 0.175 nM
10 | NCC(CN)NS(=O)(=O)c1ccc(-c2ccc(N)nc2)c(-c2nn[nH]n2)c1S(N)(=O)=O [Example 404] |  | 0.232 nM | 0.297 nM | 0.293 µM | 1.172 µM | 0.5859 µM | 1.172 | 0.9766 | 1.20 | 0.354 nM | 
11 | NCC(CN)NS(=O)(=O)c1ccc(-c2ccnc(N)c2)c(-c2nn[nH]n2)c1S(N)(=O)=O [Example 405] |  | 7.69 nM | 5.94 nM | 3.125 µM | 25 µM | 6.25 µM | 25 | 12.5 | 2.00 | 17.9 nM | 
12 | NCC(CN)NS(=O)(=O)c1ccc(-c2ccc3nccn3c2)c(-c2nn[nH]n2)c1S(N)(=O)=O [Example 406] |  | 0.164 nM | 0.172 nM | 0.3906 µM | 3.125 µM | 0.7813 µM | 1.563 | 1.563 | 1.00 | 0.592 nM | 
13 | NC[C@H](CO)NS(=O)(=O)c1ccc(-c2cccc3[nH]nnc23)c(-c2nn[nH]n2)c1S(N)(=O)=O [Example 407] |  | 0.14 nM |  | 0.7813 µM | 3.125 µM | 1.563 µM | 3.125 | 1.563 | 2.00 | 1.35 nM | 0.335 nM
14 | NC[C@H](CO)NS(=O)(=O)c1ccc(-c2ccc(N)nc2)c(-c2nn[nH]n2)c1S(N)(=O)=O [Example 408] |  | 0.421 nM | 0.394 nM | 0.09766 µM | 3.125 µM | 0.7813 µM | 1.563 | 1.563 | 1.00 | 0.684 nM | 
